Measured values reported in US20080045580A1, “Novel Isoxazole Compounds Having Ppar Agonist Activity” (DR REDDY'S LABORATORIES LIMITED, priority 2004, published 2008).
“And” between values parts separate entries of the source, which are not always exact repeats. Identical values can stand only once.

Columns and labels:
human PPARα = target: T1, human PPARα (Homo sapiens, UniProt Q07869); test: in vitro PPARα transactivation (GAL4-LBD luciferase reporter in HEK-293 cells); format: cell-based
T1 construct: expressed in transfected cells; host or cells: HEK-293
T1 sequence (Q07869 239-466 limits assumed): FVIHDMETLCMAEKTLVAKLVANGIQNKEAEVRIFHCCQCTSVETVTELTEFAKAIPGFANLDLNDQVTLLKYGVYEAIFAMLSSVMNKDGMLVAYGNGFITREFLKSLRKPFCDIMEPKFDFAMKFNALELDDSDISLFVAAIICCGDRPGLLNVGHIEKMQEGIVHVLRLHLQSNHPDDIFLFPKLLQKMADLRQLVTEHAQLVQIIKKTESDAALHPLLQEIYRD
Text: Generally, suitable PPAR agonists are believed to be useful for attenuating and/or treatment of diabetic dyslipidemia, metabolic syndrome, diabetes, cardiovascular disease, and obesity. The following procedure was used for in vitro determination of PPARα, γ and δ transactivation.
(§1) The ligand binding domain of human PPARγ1, PPARα or PPARδ was fused to the C-terminal end of DNA binding domain of yeast transcription factor GAL4 in eukaryotic expression vector. Using SuperFect (Qiagen), HEK-293 cells were transfected with this plasmid and a reporter plasmid harboring the luciferase gene driven under the control of 5 tandem GLA4 response elements. In some experiments, pAdVantage vector (Promega) was used to enhance luciferase expression. Compounds were added approximately 48 hours after transfection at various concentrations and incubated overnight. The cells were lysed and the luciferase activity was measured using the LucLite kit in Top Count (Packard). Luciferase activity was expressed as fold activation relative to untreated cells in the same experiment.

human PPARγ1 = target: T2, human PPARγ1 (Homo sapiens, UniProt P37231); test: in vitro PPARγ transactivation (GAL4-LBD luciferase reporter in HEK-293 cells); format: cell-based
T2 construct: expressed in transfected cells; host or cells: HEK-293
T2 sequence (P37231 238-503 limits assumed): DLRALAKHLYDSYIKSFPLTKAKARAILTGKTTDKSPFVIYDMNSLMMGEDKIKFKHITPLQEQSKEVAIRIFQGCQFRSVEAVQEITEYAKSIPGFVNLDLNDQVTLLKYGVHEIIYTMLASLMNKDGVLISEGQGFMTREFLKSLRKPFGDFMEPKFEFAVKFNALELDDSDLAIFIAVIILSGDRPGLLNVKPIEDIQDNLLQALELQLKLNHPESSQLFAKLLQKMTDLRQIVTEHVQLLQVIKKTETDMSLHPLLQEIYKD
Text: The following procedure was used for in vitro determination of PPARα, γ and δ transactivation.
as §1

Male Swiss albino mice = test: plasma triglyceride lowering in Swiss albino mice; format: in vivo; details: plasma triglycerides
Method: Male Swiss albino mice (SAM) were obtained from National Institute Nutrition (NIN, Hyderabad, India) and housed in Dr. Reddy's Laboratories Ltd (DRL) animal house. All these animals were maintained under 12 hour light and dark cycle at 25±1° C. Animals were given standard laboratory chow (NIN, Hyderabad, India) and water, ad libitum. Mice of 20-25 grams body weight range were used. See Olivier, et al., Atherosclerosis, 1988, 70:107-114, incorporated herein by reference in its entirety. The test compounds were administered orally to mice at the doses shown in the following in table for 6 days. […] After centrifugation, plasma was separated for plasma triglyceride and total cholesterol measurement. See Wieland, Methods of Enzymatic Analysis, Bergermeyer, ed., 1963, 211-214; Trinder, Ann. Clin. Biochenz., 1969, 6:24-27, incorporated herein by reference in their entireties. Measurement of cholesterol and plasma triglyceride was done using a […] autoanalyser (Merck). The percent reductions in plasma triglycerides (TG)/total cholesterol were calculated according to the following formula: [formula] OC=Zero day control group value OT=Zero day treated group value TC=Test day control group value TT=Test day treated group value.

[1] = test system: hypercholesterolemic Male Sprague Dawley rats; test: lipid lowering in hypercholesterolemic Sprague Dawley rats; format: in vivo; details: hypercholesterolemic SD rats, 3 mg/kg orally for 3 days; for % Reduction TG: plasma triglycerides; for % Reduction TC: total cholesterol; for HDL % increase: values represent % increase
Method: Male Sprague Dawley rats (NIN stock) were bred in DRL animal house. Animals were maintained under 12 hour light and dark cycle at 25±1° C. Rats of 180-200 gram body weight range were used for the experiment. Animals were made hypercholesterolemic by feeding 2% cholesterol and 1% sodium cholate mixed with standard laboratory chow (NIN) for 6 days. Throughout the experimental period the animals were maintained on the same diet. Control rats were treated with vehicle alone (0.25% CMC; 10 ml/kg). Blood samples were collected in fed state 1 hour after drug administration on 0 and 3 days of treatment from the retro-orbital sinus through heparinized capillary tubes containing EDTA. After centrifugation, plasma sample was separated for total cholesterol, HDL and plasma triglyceride measurement. Measurement of total cholesterol, HDL and plasma triglyceride was done using a Vitalab Selectra autoanalyser (Merck). HDL was measured using a commercial kit. LDL and VLDL cholesterol were calculated from the data obtained for total cholesterol, HDL and plasma triglyceride.
The percent reductions in plasma triglycerides (TG)/total cholesterol (TC) were calculated as described in Example 55. The levels of LDL and VLDL cholesterol were calculated according to the following formulas: LDL cholesterol in mg/dl=[Total cholesterol−HDL cholesterol−Triglyceride/5] VLDL cholesterol in mg/dl=[Total cholesterol−HDL cholesterol−LDL cholesterol]

CCOC(=O)C1(Oc2ccc(OCc3cc(-c4ccccc4)no3)cc2)CCCC1 [Example 2]
PPARα luciferase fold activation relative to untreated cells (human PPARα; 1 μM): 1.2
PPARα luciferase fold activation relative to untreated cells (human PPARα; 10 μM): 1.0
PPARα luciferase fold activation relative to untreated cells (human PPARα; 50 μM): 1.0
PPARγ luciferase fold activation relative to untreated cells (human PPARγ1; 1 μM): 1.4
PPARγ luciferase fold activation relative to untreated cells (human PPARγ1; 10 μM): 2.4
PPARγ luciferase fold activation relative to untreated cells (human PPARγ1; 50 μM): 2.4
melting point: 83 to 85 °C

CCC(C)(Oc1ccc(OCc2cc(-c3ccc(OCc4ccccc4)cc3)no2)cc1)C(=O)O (stereo not shown) [Example 3]
melting point: 132 to 134 °C

CCC(C)(Oc1ccc(OCc2cc(-c3ccc(O)cc3)no2)cc1)C(=O)O (stereo not shown) [Example 4]
melting point: 142 to 144 °C

CCC(C)(Oc1ccc(OCc2cc(-c3ccccc3)no2)cc1)C(=O)O (stereo not shown) [Example 8]
PPARα luciferase fold activation relative to untreated cells (human PPARα; 1 μM): 1.3
PPARα luciferase fold activation relative to untreated cells (human PPARα; 10 μM): 2.6
PPARα luciferase fold activation relative to untreated cells (human PPARα; 50 μM): 3.5
PPARγ luciferase fold activation relative to untreated cells (human PPARγ1; 1 μM): 0.5
PPARγ luciferase fold activation relative to untreated cells (human PPARγ1; 10 μM): 1.2
PPARγ luciferase fold activation relative to untreated cells (human PPARγ1; 50 μM): 4.1
% reduction in TG (Male Swiss albino mice; 3 mg/kg orally for 6 days): 52%
melting point: 70 to 74 °C

O=C(O)C1(Oc2ccc(OCc3cc(-c4ccccc4)no3)cc2)CCCC1 [Example 9]
PPARα luciferase fold activation relative to untreated cells (human PPARα; 1 μM): 0.8
PPARα luciferase fold activation relative to untreated cells (human PPARα; 10 μM): 1.2
PPARα luciferase fold activation relative to untreated cells (human PPARα; 50 μM): 1.7
PPARγ luciferase fold activation relative to untreated cells (human PPARγ1; 1 μM): 1.2
PPARγ luciferase fold activation relative to untreated cells (human PPARγ1; 10 μM): 0.9
PPARγ luciferase fold activation relative to untreated cells (human PPARγ1; 50 μM): 2.4
melting point: 135 to 137 °C

CC(C)(Oc1ccc(OCc2cc(-c3ccc(C(F)(F)F)cc3)no2)cc1)C(=O)O [Example 12]
melting point: 166 to 168 °C

Cc1cc(SCc2cc(-c3ccc(C(F)(F)F)cc3)no2)ccc1OC(C)(C)C(=O)O [Example 13]
melting point: 106 to 108 °C

CC(C)(Sc1ccc(OCc2cc(-c3ccc(C(F)(F)F)cc3)no2)cc1)C(=O)O [Example 14]
melting point: 120 to 122 °C

CC[C@@](C)(Oc1ccc(OCCCc2cc(-c3ccccc3)no2)cc1)C(=O)O [Example 15]
melting point: 105 to 108 °C

CC[C@](C)(Oc1ccc(OCCCc2cc(-c3ccccc3)no2)cc1)C(=O)O [Example 16]
melting point: 121 to 122 °C

CC(C)(Oc1ccc(OCc2cc(-c3ccc(-c4ccccc4)cc3)no2)cc1)C(=O)O [Example 18]
melting point: 168 to 170 °C

CCC(C)(Oc1ccc(OCc2cc(-c3ccc(-c4ccccc4)cc3)no2)cc1)C(=O)O (stereo not shown) [Example 19]
melting point: 188 to 190 °C

CCC(C)(Oc1ccc(OC/C=C/c2cc(-c3ccccc3)no2)cc1)C(=O)O (stereo not shown) [Example 20]
melting point: 118 to 120 °C

CCC(C)(Oc1ccc(OCCCc2cc(-c3ccc(C(F)(F)F)cc3)no2)cc1)C(=O)O (stereo not shown) [Example 21]
melting point: 110 to 112 °C

CCC(C)(Oc1ccc(OCc2cc(-c3ccc([N+](=O)[O-])cc3)no2)cc1)C(=O)O (stereo not shown) [Example 22]
melting point: 128 to 130 °C

CCC(C)(Oc1ccc(OCc2cc(-c3ccc(F)cc3)no2)cc1)C(=O)O (stereo not shown) [Example 23]
melting point: 118 to 120 °C

CC[C@@](C)(Oc1ccc(OCc2cc(-c3ccc(OS(C)(=O)=O)cc3)no2)cc1)C(=O)O [Example 26]
PPARα luciferase fold activation relative to untreated cells (human PPARα; 1 μM): 1.8
PPARα luciferase fold activation relative to untreated cells (human PPARα; 10 μM): 5.7
PPARα luciferase fold activation relative to untreated cells (human PPARα; 50 μM): 5.8
PPARγ luciferase fold activation relative to untreated cells (human PPARγ1; 1 μM): 0.1
PPARγ luciferase fold activation relative to untreated cells (human PPARγ1; 10 μM): 1.0
PPARγ luciferase fold activation relative to untreated cells (human PPARγ1; 50 μM): 5.3
% reduction in TG (Male Swiss albino mice; 1 mg/kg orally for 6 days): 50%

CC(C)(Oc1ccc(CCCc2cc(-c3ccccc3)no2)cc1)C(=O)O [Example 28, 2-methyl-2-{4-[3-(3-phenylisoxazol-5-yl)propyl]phenoxy}propanoic acid]
PPARα luciferase fold activation relative to untreated cells (human PPARα; 1 μM): 1.5
PPARα luciferase fold activation relative to untreated cells (human PPARα; 10 μM): 4.8
PPARα luciferase fold activation relative to untreated cells (human PPARα; 50 μM): 5.9
PPARγ luciferase fold activation relative to untreated cells (human PPARγ1; 1 μM): 2.0
PPARγ luciferase fold activation relative to untreated cells (human PPARγ1; 10 μM): 2.8
PPARγ luciferase fold activation relative to untreated cells (human PPARγ1; 50 μM): 12.4
% reduction in TG (Male Swiss albino mice; 3 mg/kg orally for 6 days): 48%
% Reduction TG [1]: 62%
% Reduction TC [1]: 70%
HDL % increase [1]: 132%

CCC(C)(Oc1ccc(OCc2cc(-c3ccc(C)cc3)no2)cc1)C(=O)OC (stereo not shown) [Example 29, 2-Methyl-2-[4-(3-(4-methylphenyl)isoxazol-5-ylmethoxy)phenoxy]butyric acid, methyl ester]
melting point: 100 to 102 °C

CCC(C)(Oc1ccc(OCc2cc(-c3ccc(C)cc3)no2)cc1)C(=O)O (stereo not shown) [Example 30, 2-Methyl-2-[4-(3-(4-methylphenyl)isoxazol-5-ylmethoxy)phenoxy]butyric acid]
melting point: 138 to 140 °C

CCC(C)(Oc1ccc(OCCCc2cc(-c3ccc(C)cc3)no2)cc1)C(=O)O (stereo not shown) [Example 32, 2-Methyl-2-{4-[3-(3-(4-methylphenyl)isoxazol-5-yl)propoxy]phenoxy}butyric acid]
melting point: 98 to 100 °C

CCC(C)(Oc1ccc(OCCCc2cc(-c3ccc(Cl)cc3)no2)cc1)C(=O)O (stereo not shown) [Example 34, 2-Methyl-2-{4-[3-(3-(4-chlorophenyl)isoxazol-5-yl)propoxy]phenoxy}butyric acid]
melting point: 130 to 132 °C

O=C(O)[C@]1(Cc2ccc(OCc3cc(-c4ccc(C(F)(F)F)cc4)no3)cc2)CCCO1 [Example 37]
% reduction in TG (Male Swiss albino mice; 3 mg/kg orally for 6 days): 69%
% Reduction TG [1]: 68%
% Reduction TC [1]: 69%
% Reduction LDL ([1]; LDL cholesterol calculated from TC, HDL, TG): 75%
HDL % increase [1]: 138%

O=C(O)C1(Cc2ccc(OCc3cc(-c4ccccc4)no3)cc2)CCCO1 (stereo not shown) [Example 39]
PPARα luciferase fold activation relative to untreated cells (human PPARα; 1 μM): 1.1 (1.1)
PPARα luciferase fold activation relative to untreated cells (human PPARα; 10 μM): 3.9
PPARα luciferase fold activation relative to untreated cells (human PPARα; 50 μM): 4.7
PPARγ luciferase fold activation relative to untreated cells (human PPARγ1; 1 μM): 1.8
PPARγ luciferase fold activation relative to untreated cells (human PPARγ1; 10 μM): 3.9
PPARγ luciferase fold activation relative to untreated cells (human PPARγ1; 50 μM): 9.0
% reduction in TG (Male Swiss albino mice; 3 mg/kg orally for 6 days): 44%

Cc1cccc(Nc2cc(Cl)nc(SCC(=O)O)n2)c1C [Wyeth 14643, reference compound]
PPARα luciferase fold activation relative to untreated cells (human PPARα; 10 μM): 1.7 and 1.6 and 1.4 and 2.5 and 2.7 and 2.4
PPARα luciferase fold activation relative to untreated cells (human PPARα; 50 μM): 3.4 and 5.0 and 4.2 and 5.2 and 4.1 and 6.1 and 4.6 and 4.0
